Assay results taken from patent US7166761B2, “Method of screening PTPζ activity promoter or inhibitor” (priority 2000, dated 2007).
Read-outs that look alike come from different tables or passages of the source.

Tests used:
mice = assay: Effects of psychostimulant drugs on locomotor activity; type: in vivo, mouse
Procedure: The effects of psychostimulant drugs on locomotor activity were measured in a clear acrylic chamber (40×40×40 cm) by measuring animal movements with an electromagnetic activity monitoring system (sensor unit 0603, scanner 1099, Panlab). Before drug administration, the animals were acclimated to the measurement circumstance for at least 90 minutes. The animals were then administered with a stimulant drug, methamphetamine (METH) (1 mg/kg, s.c.), GBR12909 (2 mg/kg, i.p.), apomorphine (1 mg/kg, s.c.), or p-chloro-amphetamine (2 mg/kg, i.p.), and saline as administered to a control, and locomotor activity was monitored for the next 60 minutes.

striatal synaptosomes = conditions: [3H] DA 1 to 10 nM, 30 degree C; for Km: read-out: [3H] DA uptake Km, mean±SEM of three
Procedure: Dopamine (DA) uptake was measured as follows. Striatal synaptosome tissue pools (3 animals/pool) were homogenized in 100 volume (v/w) of 0.32 M sucrose in a teflonglass homogenizer and centrifuged at 12,000 rpm for 10 minutes. The crude synaptosomal pellet was resuspended in 0.32 M sucrose at a concentration of 30 mg/ml (original wet weight) and divided into 30 μl aliquots. Each aliquot was added with 270 μl of Krebs-Ringer phosphate buffer with increasing concentrations of [^3H] DA (final 1–10 nM, […], Amersham Pharmacia Biotech UK Ltd.). After incubating the resultant solution for 3 minutes at 30° C., uptake was quickly terminated by filtration through Whatman GF/C glass filters. The filters were rinsed three times with 2.5 ml ice-cold 0.32 M sucrose and measured by using a liquid scintillation counter at an efficiency of 50%. Blank values were measured in the presence of 10 μM GBR12909.
[^3H] DA was mixed with striatal synaptosomes and [^3H] DA uptake into tissues was measured (the above-mentioned method A-6-1). The homogenate of the striatal synaptosomes was incubated for 2 minutes at 30° C. in the presence of [^3H] DA (1 to 10 nM).

nucleus accumbens (NAC) = assay: In vivo microdialysis of nucleus accumbens: METH-induced DA release and locomotion; set-up: species or system mouse
Procedure: Mice were anaesthetized with sodium pentobarbital (80 mg/kg i.p.) and placed in a stereotaxic apparatus. A hole was drilled through the skull and an intracerebral guide cannula (CMA 11, CMA/Microdialysis AB) was inserted into the nucleus accumbens (NAC) and fixed with dental cement. The stereotaxic coordinates for implantation of the guide cannula in both wild-type and PTPζ-deficient mice were: anterior, +1.1 mm, ventral, +3.6 mm, lateral, +1.0 mm to the surface of bregma. 24 hours after the surgery, mice were chained to a counterbalance lever arm attached to a locomotor activity chamber (30×30 cm) with an infrared monitoring apparatus (SCANET LC-10, Toyo Sangyo Co., Ltd.). Dialysis probes (membrane length 1 mm; external diameter 0.24 mm; cuprophane CUP 11, CMA/Microdialysis AB) were inserted through the guide cannula and perfusion was performed with artificial cerebrospinal fluid (ACSF), pH 7.4, (in mM; 145.ONaCl, 2.7 KCl, 1.2 CaCl2, 1.0 MgCl2, and 2.0 NaH2PO4) at a flow rate of 2 μl/min. Perfusates were collected from freely moving animals every 20 minutes in a tube containing 20 μl of 0.4 M HClO4 (CMA 170). Samples were collected and assayed using HPLC-ECD as described above except for the following modifications: the column was MCM C-18 (4.6×150 mm) and the buffer contained 75 mM NaH2PO4, 1.7 mM 1-octanesulfonic acid sodium salt, 0.1 mM triethylamine, 25 μM EDTA·2Na and 10% acetonitrile, at flow rate of 0.55 ml/min at 30° C. The electrode was set at +320 mV. METH administration (1 mg/kg s.c.) or local infusion of high K^+ solution (in mM: 47.7 NaCl, 100.0 KCl, 1.2 CaCl2, 1.0 MgCl2, and 2.0 NaH2PO4, pH 7.4) through the microdialysis probe was performed after the state became steady.

mouse gastric epithelium = assay: Gastric ulcer formation caused by oral pleiotrophin; type: in vivo; conditions: 48 hours
Procedure: The role of PTPζ in gastric ulcer formation caused by pleiotrophin was examined as follows. After a mouse (female) of 4 weeks old was starved for 24 hours (fed water ad libitum), pleiotrophin (Peptide Institute, Inc.) was orally administered to the mouse with a sound. 48 hours later, gastric specimens were prepared and the surface of inside wall of stomach was observed by a stereomicroscope, and then pathologic specimens were prepared by hematoxylen eosin staining and analyzed.

CC(N)Cc1ccc(Cl)cc1 (centres unmarked) [p-chloro-amphetamine]
locomotor activity, sensitivity of PTPζ-deficient mice (mice; 2 mg/kg, i.p., total counts during 60 minutes after administration, 5-HT liberator): hyposensitive

NCCc1ccc(O)c(O)c1 [[^3H] DA, dopamine]
[3H] DA uptake Vmax (striatal synaptosomes; PTPζ+/+ mice): 45.74 ± 2.77 pmol/3 min/mg
[3H] DA uptake Vmax (striatal synaptosomes; PTPζ−/− mice): 58.70 ± 1.03 pmol/3 min/mg
Km (striatal synaptosomes; PTPζ+/+ mice): 0.109 ± 0.00245 µM
Km (striatal synaptosomes; PTPζ−/− mice): 0.147 ± 0.0113 µM

CN1CCc2cccc3c2[C@H]1Cc1ccc(O)c(O)c1-3 [apomorphine]
locomotor activity, responsiveness of PTPζ-deficient mice (mice; 2 mg/kg, s.c., total counts during 60 minutes after administration): normal

CN[C@@H](C)Cc1ccccc1 [methamphetamine]
DA release in NAC, PTPζ-deficient compared to wild-type mice (nucleus accumbens (NAC); PTPζ−/− mice (n=6), 1 mg/kg, s.c., microdialysis): markedly diminished DA release
METH-enhanced locomotion, PTPζ−/− compared to wild-type mice (nucleus accumbens (NAC); freely moving animals during microdialysis, infrared monitoring apparatus): statistically attenuated
extracellular DA in nucleus accumbens (nucleus accumbens (NAC); wild-type mice (n=7), 1 mg/kg, s.c., microdialysis): definitely increased
locomotor response, PTPζ−/− compared to wild-type mice (mice; 1 mg/kg, s.c., electromagnetic sensors, n=9 per genotype): significantly attenuated locomotor response

B1: pleiotrophin: a heparin-binding secretory protein of 18 kD that binds to extracellular regions of PTPζ (protein, UniProt P21246 33-168, looked up)
Pleiotrophin: GKKEKPEKKVKKSDCGEWQWSVCVPTSGDCGLGTREGTRTGAECKQTMKTQRCKIPCNWKKQFGAECKYQFQAWGECDLNTALKTRTGSLKRALHNAECQKTVTISKPCGKLTKPKPQAESKKKKKEGKKQEKMLD
hematoxylen eosin staining of gastric specimens (mouse gastric epithelium; PTPζ-deficient mice): totally normal
epithelial damage on gastric epithelium under a stereomicroscope (mouse gastric epithelium; PTPζ−/− mice): no damage was observed
epithelial damage on gastric epithelium under a stereomicroscope (mouse gastric epithelium; wild-type mice): Profuse bleeding
hematoxylen eosin staining of gastric specimens (mouse gastric epithelium; wild-type mice): obvious damage
